Reference: paper PMC6199744, “Development of Chemical Proteomics for the Folateome and Analysis of the Kinetoplastid Folateome” (ACS Infectious Diseases, 2018)
Where two headings read alike, the source gives them in different places.

Legend:
Type in all cases: binding
[1] = molecular target: T1, HeLa cell extract proteins (Homo sapiens, UniProt P50990)
T1 construct: endogenous in cells; host or cells: HeLa cell extract
T1 sequence (P50990 1-548): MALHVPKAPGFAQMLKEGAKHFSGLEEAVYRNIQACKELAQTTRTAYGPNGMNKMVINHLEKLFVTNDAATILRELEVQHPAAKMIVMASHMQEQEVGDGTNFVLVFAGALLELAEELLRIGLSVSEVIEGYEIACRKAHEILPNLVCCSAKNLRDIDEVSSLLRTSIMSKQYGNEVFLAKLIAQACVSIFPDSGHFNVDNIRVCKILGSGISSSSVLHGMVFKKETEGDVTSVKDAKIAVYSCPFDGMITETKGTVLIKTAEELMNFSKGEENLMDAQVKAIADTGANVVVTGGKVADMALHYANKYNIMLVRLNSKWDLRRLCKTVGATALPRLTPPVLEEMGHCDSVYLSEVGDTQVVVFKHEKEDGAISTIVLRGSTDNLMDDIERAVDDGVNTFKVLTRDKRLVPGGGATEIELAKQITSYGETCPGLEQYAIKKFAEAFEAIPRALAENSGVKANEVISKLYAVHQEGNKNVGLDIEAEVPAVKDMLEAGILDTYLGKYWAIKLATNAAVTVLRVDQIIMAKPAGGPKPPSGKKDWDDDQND

[2] = molecular target: T2, HeLa cell extract proteins (Homo sapiens, UniProt O43592)
T2 construct: endogenous in cells; host or cells: HeLa cell extract
T2 sequence (O43592 1-962): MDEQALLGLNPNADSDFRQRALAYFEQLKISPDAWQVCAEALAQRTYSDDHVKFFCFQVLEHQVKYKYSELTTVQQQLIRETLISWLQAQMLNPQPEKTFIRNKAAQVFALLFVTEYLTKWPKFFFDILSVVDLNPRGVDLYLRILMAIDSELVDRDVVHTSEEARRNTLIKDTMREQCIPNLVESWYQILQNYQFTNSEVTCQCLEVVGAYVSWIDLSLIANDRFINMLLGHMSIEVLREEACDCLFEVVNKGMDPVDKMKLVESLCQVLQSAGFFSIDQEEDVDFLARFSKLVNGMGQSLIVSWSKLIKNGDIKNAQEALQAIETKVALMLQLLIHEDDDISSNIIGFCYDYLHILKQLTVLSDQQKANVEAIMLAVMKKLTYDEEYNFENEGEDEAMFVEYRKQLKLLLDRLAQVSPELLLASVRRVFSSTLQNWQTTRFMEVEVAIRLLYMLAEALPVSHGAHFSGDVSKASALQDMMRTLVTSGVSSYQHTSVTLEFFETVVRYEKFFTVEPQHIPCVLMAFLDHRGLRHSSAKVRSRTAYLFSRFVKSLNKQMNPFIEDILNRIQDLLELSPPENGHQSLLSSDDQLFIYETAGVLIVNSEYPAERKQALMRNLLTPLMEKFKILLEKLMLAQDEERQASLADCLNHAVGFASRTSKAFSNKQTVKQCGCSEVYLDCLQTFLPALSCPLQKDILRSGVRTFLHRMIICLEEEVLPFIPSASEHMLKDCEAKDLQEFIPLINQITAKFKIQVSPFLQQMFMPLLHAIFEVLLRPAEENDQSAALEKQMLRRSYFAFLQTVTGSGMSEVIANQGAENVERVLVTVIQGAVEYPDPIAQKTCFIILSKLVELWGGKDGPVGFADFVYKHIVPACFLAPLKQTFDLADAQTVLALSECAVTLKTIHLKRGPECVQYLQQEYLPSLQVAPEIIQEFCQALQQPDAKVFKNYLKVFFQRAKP

[3] = molecular target: T3, HeLa cell extract proteins (Homo sapiens, UniProt P23284)
T3 construct: endogenous in cells; host or cells: HeLa cell extract
T3 sequence (P23284 34-216): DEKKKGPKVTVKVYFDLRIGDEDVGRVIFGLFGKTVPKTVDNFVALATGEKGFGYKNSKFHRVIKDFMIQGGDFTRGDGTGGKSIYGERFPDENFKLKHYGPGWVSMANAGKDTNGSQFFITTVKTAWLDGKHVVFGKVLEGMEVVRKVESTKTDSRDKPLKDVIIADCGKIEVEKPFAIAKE

[4] = molecular target: T4, HeLa cell extract proteins (Homo sapiens, UniProt P49720)
T4 construct: endogenous in cells; host or cells: HeLa cell extract
T4 sequence (P49720 1-205): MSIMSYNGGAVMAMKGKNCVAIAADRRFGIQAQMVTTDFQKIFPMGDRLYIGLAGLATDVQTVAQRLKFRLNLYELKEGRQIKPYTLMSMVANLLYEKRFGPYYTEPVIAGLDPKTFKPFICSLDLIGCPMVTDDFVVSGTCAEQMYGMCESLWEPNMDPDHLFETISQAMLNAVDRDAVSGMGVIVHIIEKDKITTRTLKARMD

[5] = molecular target: T5, HeLa cell extract proteins (Homo sapiens, UniProt Q14566)
T5 construct: endogenous in cells; host or cells: HeLa cell extract
T5 sequence (Q14566 1-821): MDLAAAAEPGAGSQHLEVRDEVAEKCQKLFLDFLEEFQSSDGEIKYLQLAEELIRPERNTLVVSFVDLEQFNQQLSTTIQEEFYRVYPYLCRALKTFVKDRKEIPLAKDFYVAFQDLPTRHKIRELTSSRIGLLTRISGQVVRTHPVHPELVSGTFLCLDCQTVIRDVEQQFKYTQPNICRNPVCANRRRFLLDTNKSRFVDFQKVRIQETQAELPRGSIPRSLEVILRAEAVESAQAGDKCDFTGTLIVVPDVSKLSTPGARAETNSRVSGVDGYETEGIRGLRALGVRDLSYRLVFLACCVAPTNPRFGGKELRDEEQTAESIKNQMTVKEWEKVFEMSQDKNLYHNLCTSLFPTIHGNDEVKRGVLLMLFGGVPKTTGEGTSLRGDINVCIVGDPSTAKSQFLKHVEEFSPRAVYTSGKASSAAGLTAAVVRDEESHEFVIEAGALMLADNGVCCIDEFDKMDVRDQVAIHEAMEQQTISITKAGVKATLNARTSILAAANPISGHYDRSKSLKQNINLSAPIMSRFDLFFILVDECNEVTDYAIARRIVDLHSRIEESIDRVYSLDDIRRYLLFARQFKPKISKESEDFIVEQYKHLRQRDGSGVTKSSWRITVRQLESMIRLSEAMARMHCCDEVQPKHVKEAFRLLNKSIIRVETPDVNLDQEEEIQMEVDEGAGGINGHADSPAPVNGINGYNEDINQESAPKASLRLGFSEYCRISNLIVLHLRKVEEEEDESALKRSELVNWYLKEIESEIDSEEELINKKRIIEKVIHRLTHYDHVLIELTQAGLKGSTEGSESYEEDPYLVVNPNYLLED

[6] = HeLa, protein PPIB (PEPT[…] B PRECURSOR.)

Row | SMILES | fold changes relative to vehicle control ([1]; HeLa, protein CCT8) | fold changes relative to vehicle control ([2]; HeLa, protein XPOT) | fold changes relative to vehicle control ([3]; HeLa, captured protein PPIB) | fold changes relative to vehicle control ([4]; HeLa, protein PSMB3) | fold changes relative to vehicle control ([5]; HeLa, protein MCM6) | fold changes relative to vehicle control [1] | fold changes relative to vehicle control [2] | fold changes relative to vehicle control [3] | fold changes relative to vehicle control [4] | fold changes relative to vehicle control [5] | fold changes relative to vehicle control ([1]; protein CCT8, HeLa) | fold changes relative to vehicle control [3, 6] | fold changes relative to vehicle control ([4]; protein PSMB3, HeLa) | fold changes relative to vehicle control ([5]; protein MCM6, HeLa)
1 | Nc1nc2c(c(=O)[nH]1)N(C=O)C(CNc1ccc(C(=O)N[C@@H](CCC(=O)O)C(=O)O)cc1)CN2 (some centres unmarked) [LEU, leucovorin] | 0.99 | 0.94 | 1 | 1.13 | 1.28 |  |  |  |  |  |  |  |  | 
2 | Nc1nc2[nH]cc(CCc3ccc(C(=O)N[C@@H](CCC(=O)O)C(=O)O)cc3)c2c(=O)[nH]1 [PTX, pemetrexed] |  |  |  |  |  | 1.02 | 0.84 | 1.11 | 0.99 | 1.05 |  |  |  | 
3 | CCCCCCOc1ccc(Cc2cnc(N)nc2N)cc1 [compound 1] |  | 0.95 |  |  |  |  |  |  |  |  | 1.16 | 1.37 fold | 1.13 | 1.15
4 | CCCCCCOc1cccc(Cc2cnc(N)nc2N)c1 [compound 2] |  | 1.02 |  |  |  |  |  |  |  |  | 1.92 | 2.04 fold | 1.53 | 2.32
5 | Nc1nc2cccc(-c3ccccc3)c2n1Cc1ccc(Cl)c(Cl)c1 [compound 3] |  | 1.08 |  |  |  |  |  |  |  |  | 0.96 | 1.25 fold | 0.92 | 0.91
6 | NCCOCCOCC(=O)Nc1nc2ncc(CNc3ccc(C(=O)NC(CCC(=O)O)C(=O)O)cc3)nc2c(=O)[nH]1 (centres unmarked) [compound 6] | 1.15 | 0.94 | 1.49 | 1.12 | 1.3 |  |  |  |  |  |  |  |  | 
7 | NCCCNc1ccc(C(=O)NC(CCC(=O)O)C(=O)O)cc1 (centres unmarked) [compound 7] | 0.92 | 0.99 | 1.22 | 0.92 | 1.06 |  |  |  |  |  |  |  |  | 
